Experimental data: US10800767B2, “Thyroid hormone receptor beta agonist compounds” (Terns, Inc., priority 2018, dated 2020)

What was measured:
[1] = target: TR alpha-LBD (thyroid hormone receptor alpha) (Homo sapiens (Human), UniProt P10827); test: LanthaScreen TR-FRET Thyroid Receptor alpha Coactivator Assay (agonist screening); format: biochemical; conditions: TR alpha-LBD 0.4 nM, 2 hour incubation, average of duplicate runs, read-out: EC50 THRα-FRET
Procedure: (§1) Example B1: Time-Resolved Fluorescence Resonance Energy Transfer (TR-FRET) Assay for Thyroid Hormone Receptor Agonist Screening
(§2) LanthaScreen™ TR-FRET Thyroid Receptor alpha Coactivator Assay kit (ThermoFisher) and LanthaScreen™ TR-FRET Thyroid Receptor beta Coactivator Assay kit (ThermoFisher) were used for agonist compound screening. Compounds in DMSO were diluted using ECHO Liquid Handler (Labcyte Inc.) into 384 plates in 10-point 3-fold series in duplicate (5 micro M final top concentration). Buffer C (ThermoFisher) was added to each well before the 4× mixture of fluorescein-SCR2-2 coactivator (200 nM final concentration), Terbium-labeled anti-GST antibody (2 nM final concentration), and TR alpha-LBD (0.4 nM final concentration) or TR beta-LBD (1.0 nM final concentration) was added. After 2 hour incubation at room temperature in dark, the TR-FRET signal was measured on an EnVision plate reader (PerkinElmer) with excitation at 340 nm and dual emission readout at 495 and 520 nm with the delay time of 100 micro second and the integration time of 200 micro second. The ratio of emission signal at 520 and at 495 was used to calculate EC50 using GraphPad Prism (GraphPad Software). In every batch of compound screening, T3 (L-3,3′,5-Triiodothyronine sodium salt, >95%) (Calbiochem) was used as reference compound. The EC50 of T3 measured were within 3-fold of the reference value provided by the assay kit manufacturer (ThermoFisher Scientific). The Z′ factors measured in every batch of screening using T3 as high percent effect (HPE) control and 0.5% DMSO as zero percent effect (ZPE) control were in the range of 0.5 to 0.8. Compounds' THR-beta selectivity values are derived from T3-selectivity normalized data.

[2] = target: TR beta-LBD (thyroid hormone receptor beta) (Homo sapiens (Human), UniProt P10828); test: LanthaScreen TR-FRET Thyroid Receptor beta Coactivator Assay (agonist screening); format: biochemical; conditions: for THRβ-Selectivity: THR beta over THR alpha, derived from T3-selectivity normalized data; for EC50: TR-FRET coactivator assay, TR beta-LBD 1.0 nM, 2 hour incubation, average of duplicate runs, read-out: EC50 THRβ-FRET
Sequence of TR beta-LBD (thyroid hormone receptor beta) (P10828 217-461): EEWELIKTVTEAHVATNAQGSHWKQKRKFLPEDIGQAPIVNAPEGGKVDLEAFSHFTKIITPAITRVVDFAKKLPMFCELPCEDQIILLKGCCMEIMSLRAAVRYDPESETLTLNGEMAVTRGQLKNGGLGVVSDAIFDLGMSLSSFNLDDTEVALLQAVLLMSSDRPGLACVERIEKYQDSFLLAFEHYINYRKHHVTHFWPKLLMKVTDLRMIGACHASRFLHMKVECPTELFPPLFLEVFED
Procedure: as §1, §2

Sequence of TR alpha-LBD (thyroid hormone receptor alpha) (P10827 other isoform, or with tags, fused parts or gaps del 1-162, other chains not shown): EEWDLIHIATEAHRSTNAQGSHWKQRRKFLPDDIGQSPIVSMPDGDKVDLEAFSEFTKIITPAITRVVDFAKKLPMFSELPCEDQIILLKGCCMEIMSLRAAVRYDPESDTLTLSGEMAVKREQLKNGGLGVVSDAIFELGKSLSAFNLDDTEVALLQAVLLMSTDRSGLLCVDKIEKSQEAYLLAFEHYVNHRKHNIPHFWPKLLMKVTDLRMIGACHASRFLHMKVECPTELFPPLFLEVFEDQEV

EC50 [1] [nM] | THRβ-Selectivity [2] | EC50 [2] [nM] | Compound
152 | 6.2 | 71.2 | Cc1c(NCc2noc(=O)[nH]2)cc(Cl)c(Oc2cc(C(C)C)c(=O)n(C)n2)c1Cl [Example 12, 3-(((3,5-dichloro-4-((5-isopropyl-1-methyl-6-oxo-1,6-dihydropyridazin-3-yl)oxy)-2-methylphenyl)amino)methyl)-1,2,4-oxadiazol-5(4H)-one]
2600 | 15.8 | 762 | CC(CO)c1cc(Oc2c(Cl)cc(NC(=O)c3noc(=O)[nH]3)cc2Cl)nn(C)c1=O (centres unmarked) [Example 35, N-(3,5-dichloro-4-((5-(1-hydroxypropan-2-yl)-1-methyl-6-oxo-1,6-dihydropyridazin-3-yl)oxy)phenyl)-5-oxo-4,5-dihydro-1,2,4-oxadiazole-3-carboxamide]
314 | 31.7 | 27.1 | CC(C)c1cc(Oc2c(Cl)cc(NC(=O)c3noc(=O)[nH]3)cc2Cl)nn(C)c1=O [Example 4, N-(3,5-dichloro-4-((5-isopropyl-1-methyl-6-oxo-1,6-dihydropyridazin-3-yl)oxy)phenyl)-5-oxo-4,5-dihydro-1,2,4-oxadiazole-3-carboxamide]
> 5000 | – | > 5000 | CC(C)c1cc(Oc2c(Cl)cc(N(C)Cc3noc(=O)[nH]3)cc2Cl)nn(C)c1=O [Example 2, 3-(((3,5-dichloro-4-((5-isopropyl-1-methyl-6-oxo-1,6-dihydropyridazin-3-yl)oxy)phenyl)(methyl)amino)methyl)-1,2,4-oxadiazol-5(4H)-one]
473 | 13.1 | 60.9 | CC(C)c1cc(Oc2c(Cl)cc(-c3cc(=O)[nH]o3)cc2Cl)nn(C)c1=O [Example 7, 5-(3,5-dichloro-4-((5-isopropyl-1-methyl-6-oxo-1,6-dihydropyridazin-3-yl)oxy)phenyl)isoxazol-3(2H)-one]

Continued, compound first:

Compound | EC50 [1] [nM] | THRβ-Selectivity [2] | EC50 [2] [nM]
CC(C)c1cc(Oc2c(Cl)cc(NC(=O)c3noc(=O)[nH]3)c(F)c2Cl)n[nH]c1=O [Example 34, N-(3,5-dichloro-2-fluoro-4-((5-isopropyl-6-oxo-1,6-dihydropyridazin-3-yl)oxy)phenyl)-5-oxo-4,5-dihydro-1,2,4-oxadiazole-3-carboxamide] | 577 | 10.9 | 166
CC(O)c1cc(Oc2c(Cl)cc(NC(=O)c3noc(=O)[nH]3)cc2Cl)n[nH]c1=O (centres unmarked) [Example 29, N-(3,5-dichloro-4-((5-(1-hydroxyethyl)-6-oxo-1,6-dihydropyridazin-3-yl)oxy)phenyl)-5-oxo-4,5-dihydro-1,2,4-oxadiazole-3-carboxamide] | 4340 | 88.9 | 235
O=C(Nc1cc(Cl)c(Oc2cc(C3CC3)c(=O)[nH]n2)c(Cl)c1)c1noc(=O)[nH]1 [Example 25, N-(3,5-dichloro-4-((5-cyclopropyl-6-oxo-1,6-dihydropyridazin-3-yl)oxy)phenyl)-5-oxo-4,5-dihydro-1,2,4-oxadiazole-3-carboxamide] | 2420 | 42.1 | 231
CC(C)c1cc(Cc2c(Cl)cc(NCc3noc(=O)[nH]3)cc2Cl)n[nH]c1=O [Example 15, 3-(((3,5-dichloro-4-((5-isopropyl-6-oxo-1,6-dihydropyridazin-3-yl)methyl)phenyl)amino)methyl)-1,2,4-oxadiazol-5(4H)-one] | 102 | 11.7 | 31.5
CC(C)c1cc(Oc2c(Cl)cc(NC(=O)c3noc(=O)[nH]3)c3c2CCC3)nn(C)c1=O [Example 24, N-(6-chloro-7-((5-isopropyl-1-methyl-6-oxo-1,6-dihydropyridazin-3-yl)oxy)-2,3-dihydro-1H-inden-4-yl)-5-oxo-4,5-dihydro-1,2,4-oxadiazole-3-carboxamide] | 2050 | 39.5 | 188
